From article PMC10313921, “A living ex vivo platform for functional, personalized brain cancer diagnosis” (Cell Reports Medicine, 2023)

Experiments:
[1] = system: 7 cell lines (MB231Br, LN229, U373WT, U373KO, GBM8, MS21, PDIPG); assay: Drug screening on OBSCs, summary over the panel of seven tumor lines; format: cell-based, human
How it was run: (§1)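 Luciferase-expressing tumor cells seeded onto organotypic brain slice cultures; one day later treated with six drug concentrations in the medium, or X-irradiation. Bioluminescence read three days after treatment, normalised to day-one fluorescence and untreated controls. Dose-response values by linear interpolation; DSS combines weighted tumor-kill versus slice-toxicity parameters (−100 to 100).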

[2] = system: MG-II patient tumor tissue (WHO grade II meningioma); assay: Drug screening of uncultured patient tumor tissue MG-II on OBSCs; format: cell-based; settings: Homo sapiens
How it was run: (§2)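 Uncultured patient tumour tissue, transduced with mCherry-FLuc lentivirus, engrafted on organotypic brain slice cultures (OBSCs); six drug concentrations or X-ray dosing given one day after seeding, n = 4 foci per concentration. Bioluminescence with luciferin read three days post-treatment, normalised to day one and untreated controls; drug sensitivity score combines weighted therapeutic-window parameters versus OBSC toxicity (−100 to 100).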

[3] = system: MS21 (low-passage patient-derived GBM line); assay: Drug screening of MS21 tumor foci on OBSCs; format: cell-based, human; settings: MS21 on OBSCs
How it was run: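 Tumor foci (25,000 cells) were seeded onto organotypic brain slice cultures 2 h after slicing, two per slice; one day later six drug concentrations were added to the medium or X-ray was applied. Bioluminescence was read 3 days after treatment, normalized to day-one fluorescence and to untreated controls.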

[4] = system: PIS patient tumor tissue (intracranial sarcoma); assay: Drug screening of uncultured patient tumor tissue PIS on OBSCs; format: cell-based, human; settings: Homo sapiens, PIS on OBSCs
How it was run: as §2

[5] = system: LN229 (established GBM line); assay: Drug screening of LN229 tumor foci on OBSCs; format: cell-based, human
How it was run: as §1

[6] = system: U373WT (wild-type established GBM line); assay: Drug screening of U373WT tumor foci on OBSCs; format: cell-based, human; settings: U373 WT on OBSCs
How it was run: as §1

[7] = system: GBM8 (high-passage patient-derived GBM line); assay: Drug screening of GBM8 tumor foci on OBSCs; format: cell-based, human; settings: GBM8 on OBSCs
How it was run: as §1

[8] = system: PDIPG (low-passage pediatric patient-derived line); assay: Drug screening of PDIPG tumor foci on OBSCs; format: cell-based, human; settings: PDIPG on OBSCs
How it was run: as §1

[9] = system: MB231Br (breast cancer metastasis to brain); assay: Drug screening of MB231Br tumor foci on OBSCs; format: cell-based, human
[10] = system: U373KO (RAD18 knockout of U373WT via CRISPR); assay: Drug screening of U373KO tumor foci on OBSCs; format: cell-based, human; settings: U373 KO on OBSCs
How it was run: as §1

[11] = system: PGBM-R patient tumor tissue (recurrent tumor from same patient as PGBM); assay: Drug screening of uncultured patient tumor tissue PGBM-R on OBSCs; format: cell-based, human
Description: Tumor cells were seeded onto OBSCs 2h after slicing as described above. One day after tumor seeding, six concentrations of each drug were diluted in the media underneath each culture insert, or XRad was applied using an X-Rad 320 Precision X-ray machine (n = 4 tumor foci per concentration; n ≥ 24 tumor foci per drug per cell line). Three days after treatment, the bioluminescence of live tumor cells was measured using an AMI optical imager (Spectral Instruments) and dose-response curves were generated. Tumor survival was normalized to day one tumor fluorescence and compared to an untreated control group.
To engraft onto OBSCs, the cryopreserved/thawed or fresh brain tumor tissue was filtered through a 100 μm cell strainer. Each 50 mg of tissue was transfected with 1mL mcherry-FLuc Lentivirus at 1.5e7 vg/ml with 1μL polybrene for 4h at 37°C. After incubation, the brain tumor tissue was washed with PBS three times to remove the residual virus and reconstituted in PBS with a final volume of 150 μL. Then the tissue solution was engrafted atop OBSCs at ∼0.5 mg tissue in 3 μL of PBS on each hemisphere of the slice. The OBSC engrafted with patient tumor tissue was incubated at 37°C with 5% CO2 and 95% humidity. The BSM was changed after 24h and subsequently every 3 days. Tumor treatment studies were executed as described above for tumor lines. The viability of the patient tissue was measured by an AMI optical imaging system with the addition of 1.5 mg/mL luciferin underneath the culture insert.
Several weighted parameters were factored into an overall drug sensitivity score.
For DSS parameters 1–6, therapeutic windows were calculated by comparing OBSC toxicity and tumor response at the doses where tumor kill passed through the DSS parameter (Table S1 and S3). For DSS parameter 7, the therapeutic window was calculated by comparing the slopes through the tumor EC50 and the OBSC tox EC50. For DSS parameter 8, the therapeutic window was calculated by comparing the areas under tumor kill and OBSC tox curves. Normalized therapeutic window ratios for DSS parameters 1–8 within each drug-tumor-OBSC interaction were calculated in the following manner: within each window, values ranged from +1 to −1, where values approaching +1 signify increasing tumor kill relative to normal tissue toxicity, and values approaching −1 indicate agents where tumors remained highly viable while toxicity to the normal OBSC tissue was elevated. DSS parameters 9–11 were determined based on the behavior of the tumor in response to the drug, as defined above.
All individually weighed parameters were added together to generate the DSS. Overall DSS from 0 to 100 signify increasing efficacy in tumor kill relative to OBSC toxicity, while scores from 0 to −100 describe scenarios in which tumors thrive more effectively than OBSCs for a given treatment. Dose-response values were calculated via linear interpolation of raw data, not from best-fit curve equations.

[12] = dose required to kill 50% of the tumor
[13] = dose required to kill 90% of the tumor
[14] = area under the dose-response curve, trapezoidal rule
[15] = dose required to kill 25% of the tumor
[16] = dose required to kill 75% of the tumor
[17] = dose required to kill 10% of the tumor
[18] = Homo sapiens, U373 MG, dose required to kill 50% of the tumor
[19] = Homo sapiens, U373 MG, dose required to kill 90% of the tumor
[20] = Homo sapiens, U373 MG, dosed day 1, survival via bioluminescence day 4, linear interpolation
[21] = Homo sapiens, dose required to kill 90% of the tumor, read-out: EC90
[22] = Homo sapiens, dosed day 1, survival via bioluminescence day 4, linear interpolation, read-out: IC50

Cn1nnc2c(C(N)=O)ncn2c1=O [Temozolomide]
DSS scores, range among tumors [1]: −62 to 96 | EC50 [2, 12]: > 100 µM | EC90 [2, 13]: > 10 µM | Killing at highest dose [3]: -8.20E-01 fraction of tumor population killed | AUC [3, 14]: 2.37E+03 | EC25 [3, 15]: 417 µM | EC75 [3, 16]: 1250 µM | Slope ([3]; slope through the EC50): 5.47E-04 | EC50 [4, 12]: > 100 µM | EC90 [4, 13]: > 10 µM | Killing at highest dose [5]: 3.50E-01 fraction of tumor population killed | EC50 ([5]; Homo sapiens, LN-229, dose required to kill 50% of the tumor): > 10 µM | EC90 ([5]; Homo sapiens, LN-229, dose required to kill 90% of the tumor): > 10 µM | IC50 ([5]; Homo sapiens, LN-229, dosed day 1, survival via bioluminescence day 4, linear interpolation): > 10 µM | AUC [5, 14]: 1.53E+03 | EC10 [5, 17]: 59.4 µM | EC25 [5, 15]: 460 µM | Slope ([5]; slope through the EC50): -4.00E-05 | EC50 [6, 18]: > 10 µM | EC90 [6, 19]: > 10 µM | IC50 [6, 20]: > 10 µM | Killing at highest dose [6]: 2.20E-01 fraction of tumor population killed | AUC [6, 14]: 1.52E+03 | EC10 [6, 17]: 67.3 µM | EC25 [6, 15]: 96.2 µM | Slope ([6]; slope through the EC50): -9.14E-06 | Killing at highest dose [7]: 1.00E+00 fraction of tumor population killed | AUC [7, 14]: 9.52E+01 | EC10 [7, 17]: 1.52 µM | EC25 [7, 15]: 3.79 µM | EC75 [7, 16]: 31.2 µM | Slope ([7]; slope through the EC50): -6.60E-02 | EC50 ([7]; Homo sapiens, dose required to kill 50% of the tumor, read-out: EC50): 7.58 µM | EC90 [7, 21]: 167 µM | IC50 [7, 22]: 7.6 µM | EC90 [8, 21]: > 10 µM | IC50 [8, 22]: > 10 µM | Killing at highest dose [8]: 2.90E-01 fraction of tumor population killed | AUC [8, 14]: 1.88E+03 | EC10 [8, 17]: 5 µM | EC25 [8, 15]: 667 µM | Slope ([8]; slope through the EC50): -4.80E-05 | EC50 ([9]; Homo sapiens, MB231BR on OBSCs, dose required to kill 50% of the tumor): > 10 µM | EC90 ([9]; Homo sapiens, MB231BR on OBSCs, dose required to kill 90% of the tumor): > 10 µM | IC50 ([9]; Homo sapiens, MB231Br on OBSCs, dosed day 1, survival via bioluminescence day 4, linear interpolation): > 10 µM | Killing at highest dose ([9]; MB231BR on OBSCs): -3.30E-01 fraction of tumor population killed | AUC ([9]; MB231BR on OBSCs, area under the dose-response curve, trapezoidal rule): 2.58E+03 | EC50 [10, 18]: 1160 µM | EC90 [10, 19]: > 10 µM | IC50 [10, 20]: 1160 µM | Killing at highest dose [10]: 5.40E-01 fraction of tumor population killed | AUC [10, 14]: 8.89E+02 | EC10 [10, 17]: 3.85 µM | EC25 [10, 15]: 9.62 µM | Slope ([10]; slope through the EC50): -8.67E-04 | EC90 ([11]; Homo sapiens, PGBM-R on OBSCs, dose required to kill 90% of the tumor): > 10 µM | DSS (drug sensitivity score) ([11]; PGBM-R patient tissue, scale -100 to +100): 17
